This note sets out measurements from patent publication US6326395A, “Antifungal activity of dicationic molecules” (priority 1999, dated 2001).

Assay in all cases: antifungal susceptibility testing (MIC, MFC), extended spectrum
One assay concerns C. lusitaniae 111.92. It counts as cell-based, Candida lusitaniae. The following applies: Clavispora lusitaniae. The method, then: (§1) Antifungal susceptibility testing for compounds set forth in Examples 1-20 is discussed hereinbelow. […]
(§2) In vitro susceptibility testing in the form of Minimum Inhibitory Concentration (MIC) experiments were performed using the broth macrodilution method according to the recommendations of the National Committee for Clinical Laboratory Standards (see 1995 manual). […] Briefly, this procedure specifies an inoculum grown at 35° C. and adjusted to a concentration of 0.5-2.5×10^3 CFU/ml with an incubation of the test performed at 35° C. and reading at 48 hours for all yeasts except for C. neoformans which is interpreted at 72 hr.
(§3) Minimum Fungicidal Concentration (MFC) experiments were adapted from a method by McGinnis (McGinnis, M. R., (1980) "Susceptibility testing and bioassay procedure", p. 431, Academic Press, Inc., New York). […] The lowest drug concentration that yielded three or fewer yeasts colonies was recorded as the MFC. […]
(§4) Minimum Fungicidal Concentration (MFC) experiments were adapted from a method by McGinnis (McGinnis, M. R., (1980) "Susceptibility testing and bioassay procedure", p.431, Academic Press, Inc., New York). […] The lowest drug concentration that yielded 3 or fewer yeasts colonies was recorded as the MFC. […]

The subject of another assay is C. krusei 132.91. It counts as cell-based, Candida krusei. Conditions: Pichia kudriavzevii. As to the method: as §1, §2, §3, §4
Assay [1] concerns Cryptococcus neoformans H99. Format: cell-based, C. neoformans var. neoformans. Conditions: Cryptococcus neoformans H99.
From the text: Antifungal susceptibility testing for compounds set forth in Examples 1-20 is discussed hereinbelow. The fungi that were employed included two reference strains, C. neoformans var. neoformans H99 and C. albicans A39 and the following clinical isolates: (1) two strains of fluconazole-resistant C. neoformans var. neoformans (135.95 and 114.96); (2) two strains of C. neoformans var. gattii (119.95 and 114.95); (3) two strains of fluconazole-resistant C. albicans (102.96 and 103.96); and (4) one strain each of Torulopsis glabrata (142.91), Candida parapsilosis (111.96), Candida krusei (132.91), C. tropicalis (110.96), Candida lusitaniae (111.92), Fusarium solani (152.89), Aspergillus fumigatus (168.95), and Aspergillus flavus (112.96). Antifungal susceptibility testing was performed using an RPMI-1640 medium (Sigma Chemical Co., St. Louis, Mo.) with glutamine, without sodium bicarbonate, and buffered at pH 7.0 with 0.165 M morpholine-propanesulfonic acid (MOPS).
as §2, §3, §4

What is called MFC is the smallest concentration meeting the test's criterion for killing the fungus. A higher MFC goes with weaker fungicidal potency.

Where a name gives a salt, the structure may show the parent alone.

`CC(C)NC(=N)c1ccc2nc(-c3ccc4c(c3)Cc3cc(-c5nc6ccc(C(=N)NC(C)C)cc6[nH]5)ccc3-4)[nH]c2c1` [Compound 57, 2,7-Bis[2-(5-N-isopropylamidino)benzimidazoyl]fluorene hydrochloride]: the MFC in the assay with C. lusitaniae 111.92 worked out at 3.12 µg/mL; in the assay on C. krusei 132.91, 0.78 µg/mL; in assay [1] it was 0.78 µg/mL. The MIC in the assay with C. lusitaniae 111.92 (48 hours, read-out: MIC80) was 0.78 µg/mL; in the assay on C. krusei 132.91 (48 hours, read-out: MIC80), 0.78 µg/mL; in assay [1] (72 hr, read-out: MIC80), 0.78 µg/mL.
